Data taken from patent US8809010B2, “Method for prophylactic treatment of alzheimer's disease using inhibitors of glutaminyl cyclase and glutamate cyclases” (Probiodrug AG, priority 2003, dated 2014).
Read-outs that look alike come from different tables or passages of the source. Ends that are not written are not given here. Peptide text beside a SMILES is read from it. Gln(NMe) = glutamine with N-methylated side-chain amide

Experiments:
human QC [1] = target: T1, human QC (Homo sapiens, UniProt Q16769); assay: Enzyme inactivation/reactivation procedures; format: biochemical; conditions: for inactivation of human QC: extensive dialysis against 5 mM chelator
T1 construct: The cDNA of the mature QC starting with codon 38 was fused in frame with the plasmid encoded 6× histidine tag; 6xHis; made in house; host or cells: Pichia pastoris X33 (pPICZαB, secreted); also E. coli M15 (pQE-31)

[2] = system: QC in porcine pituitary homogenate; assay: Formation of [pGlu3]Aβ3-11a in porcine pituitary homogenate, MALDI-TOF; format: biochemical; conditions: for formation of [pGlu^3]Aβ3-11a from [Gln^3]Aβ1-11a, consecutive catalysis by DP IV and QC: pituitary homogenate with added DPIV from porcine kidney
Experimental: (§1) Matrix-assisted laser desorption/ionization mass spectrometry was carried out using the Hewlett-Packard G2025 LD-TOF System with a linear time of flight analyzer. […] Samples (5 μl) were mixed with equal volumes of the matrix solution. For matrix solution we used DHAP/DAHC, prepared by solving 30 mg 2′,6′-dihydroxyacetophenone (Aldrich) and 44 mg diammonium hydrogen citrate (Fluka) in 1 ml acetonitrile/0.1% TFA in water (1/1, v/v). A small volume (≈1 μl) of the matrix-analyte-mixture was transferred to a probe tip and immediately evaporated in a vacuum chamber (Hewlett-Packard G2024A sample prep accessory) to ensure rapid and homogeneous sample crystallization.

mammalian QC = mammalian QC (Bos taurus, UniProt Q28120); conditions: cited from earlier work
human QC [3] = target: T1, human QC; conditions: cited from earlier work
human QC [4] = target: T1, human QC; assay: QC inhibitor assay (fluorometric, H-Gln-AMC / H-Gln-βNA, pyroglutamyl aminopeptidase coupled); format: biochemical
human QC [5] = target: T1, human QC; assay: Qualitative substrate conversion (MALDI-TOF / fluorometric); format: biochemical; design: key to substrate conversion, determined qualitatively: *: determined qualitatively by MALDI-TOF experiments; conditions: for substrate conversion, determined qualitatively: Human QC, MALDI-TOF
Experimental: as §1
In order to further investigate the specificity and selectivity of the QCs, peptides were synthesized comprising either a modified N-terminal glutaminyl residue or a modified amino acid in the second position. […] Due to the cyclization of the glutaminyl residue or its analog, respectively, a mass difference of the substrate and the product of catalysis is detected. In cases of ammonia liberation of one mole per mole of substrate, the conversion was also analyzed quantitatively using the spectrophotometric assay.

human QC [6] = target: T1, human QC; assay: Continuous spectrophotometric QC assay (glutamate dehydrogenase coupled), substrate kinetics; format: biochemical;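 also: initial rates read on a microplate reader at 30 °C, with enzyme activity quantified against an ammonia calibration curve under the same assay conditions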
Experimental: The initial velocities were evaluated and the enzymatic activity was determined from a standard curve of ammonia under assay conditions. All samples were measured at 30° C., using either the [sequence]luor Plus or the Sunrise (both from TECAN) reader for microplates. Kinetic data was evaluated using GraFit software.

[7] = Nonenzymatic pGlu-formation at pH 6.0 followed for 4 weeks; conditions: pH 6.0, 4 weeks
physchem = conditions: pKa of the substrate amino group, determined by titration
Experimental: The ionic strength was adjusted to 0.05 M by addition of NaCl. The rate profiles were evaluated by fitting to a model that is based on dissociating groups.
For both determinations, a three-component buffer system was applied consisting of 0.05 M acetic acid, 0.05 M pyrophosphoric acid and 0.05 M Tricine. All buffers were adjusted to equal conductivity by addition of NaCl, in order to avoid differences in ionic strength. […] All determinations were carried out at 30° C.

DP IV (porcine kidney) = target: T2, DP IV (porcine kidney) (Sus scrofa, UniProt P22411); assay: DP IV cleavage of [Gln3]Aβ1-11a, MALDI-TOF; format: biochemical
T2 construct: Measurements were carried out using purified DP IV (porcine kidney); from tissue; host or cells: porcine kidney
Experimental: as §1

human QC [8] = target: T1, human QC; assay: Long-term Glu1-cyclization of Aβ-derived peptides by recombinant human QC, MALDI-TOF; format: biochemical; conditions: for glutamate-containing peptide as QC-substrate: pH 5.2 and 6.5
Experimental: For long-term testing of Glu^1-cyclization, Aβ-derived peptides were incubated in 100 μl 0.1 M sodium acetate buffer, pH 5.2 or 0.1 M Bis-Tris buffer, pH 6.5 at 30° C. Peptides were applied in 0.5 mM [Aβ3-11a] or 0.15 mM [Aβ3-21a] concentrations, and 0.2 U QC was added all 24 hours. In case of Aβ3-21a, the assays contained 1% DMSO. At different times, samples were removed from the assay tube, peptides extracted using ZipTips (Millipore) according to the manufacturer's recommendations, mixed with matrix solution (1:1 v/v) and subsequently the mass spectra recorded. Negative controls did either contain no QC or heat deactivated enzyme.
The QC-catalyzed formation of [pGlu^3]Aβ3-11a and [pGlu^3]Aβ3-21a was investigated at pH 5.2 and 6.5, respectively. If the QC-inhibitor benzimidazole was added to the solution before starting the assay by addition of QC, substrate conversion resulting in [pGlu^3]Aβ3-11a or [pGlu^3]Aβ3-21a was suppressed (FIGS. 15E and F). If QC was boiled before addition, formation of the pGlu-peptides was negligible (FIGS. 15A and B).

[9] = Aβ aggregation assay with flow cytometry; format: physicochemical; conditions: 10 μM peptide, up to 24 h
Experimental: At different times, samples were removed, diluted to 10 nM (based on the initial concentration of the monomer), and analyzed by flow cytometry.
Seedless Aβ peptides were diluted to 10 μM (final total peptide concentration) into 50 mM sodium acetate, pH 5.5 containing 2 mM DTT and 100 mM NaCl and incubated at 37° C. without shaking. For fibril formation analysis, the peptides were either used as a mixture of unlabeled peptide (80%) and the respective fluorescence labeled peptide (20%) or as unlabeled peptides alone. […] In order to characterize the progress of the reaction, aliquots were removed at the indicated times, diluted to 10 nM into PBS-T (0.05% Tween-20) and analyzed. For reactions containing unlabeled peptides only, prior to flow cytometry aliquots were diluted to 5 nM into PBS-T and incubated with fluorescence labeled antibody 4G8 (Chemicon, Tececula, Calif.) at 1 nM for 1 h at 4° C.
To ensure identical conditions for all measurements, all samples were measured in TruCount Tubes (BD Biosciences) and analysis was stopped after 20,000 beads were counted. Counts were transferred into ANSMS for evaluation (Alzheimer normalized specific measurement signal: event counts from flow cytometry analysis normalized to the size of the particles, i.e. to a mean size of FS Log=250).

THP-1 monocytes = assay: TransWell chemotaxis assay; format: cell-based, human; conditions: supernatant of transfected HEK293 cells
Experimental: The chemotaxis assay was performed using 24 well TransWell plates with a pore size of 5 μm (Corning). Media, containing human MCP-1 variants expressed in HEK293, were used as chemoattractant. To this avail, 600 μl of the culture media of N-terminal human MCP-1 variants was applied directly or in dilutions 1:3, 1:10 and 1:30 in RPMI1640 to the lower chamber of the TransWell plate. Furthermore, undiluted media of HEK293 cells transfected with vector control were applied as negative control to the lower chamber. THP-1 cells were harvested and resuspended in RPMI1640 in a concentration of 1*10^6 cells/100 μl and applied in 100 μl aliquots to the upper chamber. Cells were allowed to migrate towards the chemoattractant for 2 h at 37° C. Subsequently, cells from the upper chamber were discarded and the lower chamber was mixed with 70 mM EDTA in PBS and incubated for 15 min at 37° C. to release cells attached to the membrane. Afterwards, cells migrated to the lower chamber were counted using a cell counter system (Schärfe System). The chemotactic index was calculated by dividing cells migrated to the stimulus from cells migrated to the negative control.

[10] = Thioflavin T assay of fibril formation; format: physicochemical
Experimental: The observations for the Aβ42 peptides were substantiated using a common ThT fluorescence assay (FIG. 24-6D). […] The typical lag phase, i.e. the thermodynamically unfavorable period, in which the seeds are generated, is displaced by a hyperbolic initial phase. Thus, there is a much higher tendency to formation of ThT positive initial aggregates.
Fibril formation analysis using Thioflavin T fluorescence was performed essentially as described previously (Chalifour R J, McLaughlin R W, Lavoie L, Morissette C, Tremblay N, Boule M, Sarazin P, Stea D, Lacombe D, Tremblay P, Gervais F 2003 Stereoselective interactions of peptide inhibitors with the beta-amyloid peptide. J Biol Chem 278:34874-34881). The DMSO stock solution was diluted in PBS to a final concentration of 50 μM of Aβ peptide. The peptide solution was added to an equal volume of ThT solution (20 μM ThT, 0.3 M NaCl, 0.01% NaN3) and applied to a 96-well microplate. Routinely, assays of each peptide were performed in triplicate on one plate. The plate was covered with an adhesive film (EXCEL Scientific, Wrightwood, Calif., USA) and incubated in the plate reader at 30° C. for up to 250 h. The fluorescence was measured every 4 h (excitation 440 nm, emission […]).

[11] = Human QC, 0.05M Tris-HCl, pH 8.0
[12] = Human QC, 0.05M Tris-HCl, pH 8.0, 0.5 M KCl
[13] = recombinant human QC, buffer containing 1% DMSO

Chain of mammalian QC (Q28120 29-361): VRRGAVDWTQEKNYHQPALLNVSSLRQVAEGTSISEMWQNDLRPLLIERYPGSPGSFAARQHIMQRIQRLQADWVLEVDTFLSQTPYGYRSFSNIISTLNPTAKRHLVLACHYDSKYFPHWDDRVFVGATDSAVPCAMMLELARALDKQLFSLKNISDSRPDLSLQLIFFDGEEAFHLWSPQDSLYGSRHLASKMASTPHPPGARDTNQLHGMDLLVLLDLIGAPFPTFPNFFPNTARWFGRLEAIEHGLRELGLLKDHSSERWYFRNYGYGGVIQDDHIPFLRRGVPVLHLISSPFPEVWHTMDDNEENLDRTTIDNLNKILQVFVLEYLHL
T1 sequence (Q16769 29-361): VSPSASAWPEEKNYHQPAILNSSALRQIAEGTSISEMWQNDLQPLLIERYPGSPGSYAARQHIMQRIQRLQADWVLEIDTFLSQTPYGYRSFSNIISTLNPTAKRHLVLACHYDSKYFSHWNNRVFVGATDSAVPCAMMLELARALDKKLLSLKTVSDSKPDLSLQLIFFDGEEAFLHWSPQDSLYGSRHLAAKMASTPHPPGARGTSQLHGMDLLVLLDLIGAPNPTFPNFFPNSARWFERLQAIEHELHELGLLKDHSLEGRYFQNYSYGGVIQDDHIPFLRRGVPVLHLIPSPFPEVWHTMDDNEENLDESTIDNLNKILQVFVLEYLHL
T2 sequence (P22411 whole entry): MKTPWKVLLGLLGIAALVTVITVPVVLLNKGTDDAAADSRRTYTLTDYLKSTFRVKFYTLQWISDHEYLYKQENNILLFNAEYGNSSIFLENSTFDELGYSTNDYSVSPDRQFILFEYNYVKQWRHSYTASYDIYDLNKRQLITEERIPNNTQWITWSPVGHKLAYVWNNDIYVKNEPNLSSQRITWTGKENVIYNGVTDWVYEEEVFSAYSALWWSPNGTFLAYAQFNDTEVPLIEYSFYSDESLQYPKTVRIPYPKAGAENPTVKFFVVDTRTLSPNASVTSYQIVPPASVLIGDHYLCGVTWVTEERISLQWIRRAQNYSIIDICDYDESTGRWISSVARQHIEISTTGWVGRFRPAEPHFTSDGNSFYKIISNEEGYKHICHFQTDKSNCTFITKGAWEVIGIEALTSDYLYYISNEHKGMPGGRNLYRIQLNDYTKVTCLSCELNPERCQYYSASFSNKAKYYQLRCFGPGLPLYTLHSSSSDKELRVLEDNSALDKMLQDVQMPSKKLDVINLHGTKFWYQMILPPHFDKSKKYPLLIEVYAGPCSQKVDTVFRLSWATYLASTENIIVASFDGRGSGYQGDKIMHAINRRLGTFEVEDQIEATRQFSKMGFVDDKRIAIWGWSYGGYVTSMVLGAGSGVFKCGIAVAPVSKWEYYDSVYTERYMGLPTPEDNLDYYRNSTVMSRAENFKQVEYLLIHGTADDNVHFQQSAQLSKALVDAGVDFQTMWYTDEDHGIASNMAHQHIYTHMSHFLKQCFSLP

## Fc1ccc(NC(=S)NCCCn2ccnc2)cc1
other
  melting point: 147 to 148 °C

## c1cnc2c(c1)ccc1cccnc12 [1,10-phenanthroline]
Human QC [1]
  inactivation of human QC: almost completely inactivated
[2]
  formation of [pGlu^3]Aβ3-11a from [Gln^3]Aβ1-11a, consecutive catalysis by DP IV and QC: not formed
[2]; porcine pituitary homogenate
  formation of [pGlu^3]Aβ3-11a from [Gln^3]Aβ3-11a: inhibited
Mammalian QC
  inhibition of mammalian QC: Inhibition
Human QC [3]
  inhibition of human QC: inhibited

## O=C(O)CN(CCN(CC(=O)O)CC(=O)O)CC(=O)O [EDTA]
Mammalian QC
  inhibition of mammalian QC: did not inhibit

## S=C(NCCCn1ccnc1)NCc1ccc2c(c1)OCO2 [Example 47]
Human QC [4]
  Ki: 6.1 µM

## N#CN=C(NCCCn1ccnc1)NCc1ccc2c(c1)OCO2 [Example 81]
Human QC [4]
  Ki: 1.53 µM

## O=C(NCCCn1ccnc1)Nc1cc(F)cc2c1OCOC2 [Example 97]
Human QC [4]; residual QC activity with inhibitor
  Res. Act. (%): 19.0%

## CC(C)C[C@H](NC(=O)[C@H](CCCNC(=N)N)NC(=O)[C@H](CCCCNC(=O)[C@@H](N)CCC(N)=O)NC(=O)[C@@H](N)CCC(N)=O)C(=O)N[C@@H](C)C(N)=O [H-Gln-Lys(Gln)-Arg-Leu-Ala-NH2] (H-QK(Gln)RLA-NH2)
Human QC [5]
  conversion by human QC: converted

## NC(=O)CC[C@H](N)C(N)=O [H-Gln-NH2]
Human QC [5]
  conversion by human QC: converted glutaminamide to products readily
Human QC [6]; Human QC
  kcat: 12.8 ± 0.5 s⁻¹
Human QC [6]; [11]
  Ki (mM): n.i.
  kcat: 12.8 ± 0.3 s⁻¹
Human QC [6]; [12]
  Ki (mM): n.i.
  kcat: 12.2 ± 0.1 s⁻¹
Human QC [6]; Human QC, for substrate inhibition
  Ki* (mM): n.i.

## NC(=O)CC[C@H](N)C(=O)O [H-Gln-OH]
Human QC [5]
  conversion by human QC: no reactivity
Human QC [6]; Human QC
  KM (μM): n.r.
  kcat (s^−1): n.r.

## NC(=O)CC[C@H](N)C(=O)Nc1ccc2ccccc2c1 [H-Gln-βNA]
[7]
  first-order rate constant of nonenzymatic pGlu-formation: 1.2*10^−7 s^−1
physchem
  pKa: 7.16 ± 0.01

## COC(=O)CC[C@H](N)C(=O)N[C@@H](Cc1ccccc1)C(=O)N[C@@H](CCCCN)C(=O)N[C@@H](CCCNC(=N)N)C(=O)N[C@@H](CC(C)C)C(=O)N[C@@H](C)C(N)=O [H-Glu(OMe)-Phe-Lys-Arg-Leu-Ala-NH2] (H-E(OMe)FKRLA-NH2)
Human QC [4]
  inhibition of human QC: not inhibited

## COC(=O)CC[C@H](N)C(=O)Nc1ccc2ccccc2c1 [H-Glu(OMe)-βNA]
Human QC [5]
  conversion by human QC: None of these compounds were converted

## N[C@@H](CCC(=O)O)C(=O)Nc1ccc2ccccc2c1 [H-Glu-βNA]
[7]
  first-order rate constant of nonenzymatic pGlu-formation: ≤ 1.0*10^−9 s^−1
Human QC [5]
  conversion by human QC: None of these compounds were converted

## NCCc1c[nH]cn1 [L-Histamine]
Human QC [4]
  inhibition of human QC: about one order of magnitude smaller compared to its acetylated counterpart

## CC(C)[C@H](N)C(=O)N1CCCC1 [Val-Pyrr, Val-Pyrrolidide]
[2]
  formation of [pGlu^3]Aβ3-11a from [Gln^3]Aβ1-11a, consecutive catalysis by DP IV and QC: not formed
DP IV (porcine kidney)
  DPIV-catalysed formation of [Gln^3]Aβ3-11a from [Gln^3]Aβ1-11a: completely prevented

## O=S(=O)([O-])[O-].[Zn+2] [ZnSO4]
Human QC [1]; 0.5 mM metal ion, 0.5 mM EDTA
  restoration of QC activity after inactivation: Near-total restoration

## c1ccc2[nH]cnc2c1 [benzimidazole]
Human QC [8]; 5 mM inhibitor, pH 5.2 / 6.5
  formation of [pGlu^3]Aβ3-11a or [pGlu^3]Aβ3-21a in presence of inhibitor: suppressed

## O=C(O)c1cccc(C(=O)O)n1 [dipicolinic acid]
Human QC [1]
  inactivation of human QC: almost completely inactivated
Human QC [3]
  inhibition of human QC: inhibited

## c1c[nH]cn1 [imidazole]
Human QC [3]
  inhibition of human QC: inhibited

## Aβ(1-42): SEQ ID NO: 20
[9]
  fibril formation: Only very little fibril formation

## EFRHDSGYE-NH2 [Aβ3-11a]
Human QC [8]
  glutamate-containing peptide as QC-substrate: can also serve as QC-substrates

## EFRHDSGYEVHHQKLVFFA-NH2 [Aβ3-21a]
Human QC [8]
  glutamate-containing peptide as QC-substrate: can also serve as QC-substrates

## H-EFKRLA-NH2 [H-Glu-Phe-Lys-Arg-Leu-Ala-NH2]
Human QC [4]
  inhibition of human QC: not inhibited

## H-Gln(NMe)-Phe-Lys-Ala-Glu-NH2 ({Gln(NMe)}-FKAE-NH2)
Human QC [5]
  conversion by human QC: No substrate conversion was observed
Human QC [4]
  inhibition of human QC: not detected

## MCP-1 (WT): human MCP-1(1-76) expressed in HEK293 cells
THP-1 monocytes
  chemotaxis of THP-1 cells: chemotactic response

## [Gln^3]-glucagon (3-29): QC substrate
Human QC [5]
  substrate conversion, determined qualitatively: *
Human QC [6]; [13]
  Km: 19 ± 1 µM
  kcat: 10.0 ± 0.2 s⁻¹

## [Gln^5]-substance P (5-11): QC substrate (QQFFGLM; ends and bridges not checked)
Human QC [5]
  substrate conversion, determined qualitatively: *

## pGlu-Aβ(3-40): N-terminally pyroglutamate-modified Aβ(3-40)
[10]
  aggregation, ThT fluorescence: much faster aggregation compared to the non-cyclized counterpart

## phenylimidazole
Human QC [4]
  inhibition of human QC: inactive under the experimental conditions

## reduced 6-methylpterin
Mammalian QC
  inhibition of mammalian QC: Inhibition
